Results as given in patent publication US10925867B2, “Immunotherapeutic dosing regimens comprising pomalidomide and an anti-CS1 antibody for treating cancer” (Bristol-Myers Squibb Company, priority 2015, dated 2021).
Like-named read-outs stand apart in the source and are kept apart here.

Experiments:
OPM2 xenograft [1] = assay: OPM2 xenograft studies taken together (summary and conclusion); format: in vivo, mice; details: elotuzumab 0.5 mg/kg, pomalidomide 5 mg/kg, dexamethasone 5 mg/kg
Method: The present invention is based on data from preclinical studies conducted in female SCID mice (6-8 weeks old) that were implanted SC (subcutaneous implantation) with the multiple myeloma cell line OPM-2 which were treated with Elotuzumab IP (intraperitoneal administration) alone, treated with pomalidomide alone, treated with dexamethasone alone, or treated in combination with each other. […] All treatments were well tolerated, with no significant changes in body weights or overt signs of clinical toxicity.
Dosing regimen for dexamethasone was QD×7.

OPM2 xenograft [2] = details: for Median Days to Target Size / LCK / CR (complete tumor regressions) / PR (partial tumor regressions) / TGI: Study #1; for Median Days to Target Size: ELO 0.5 mg/kg IP 2QW from d16, POM 5 mg/kg PO QD × 5 d16, 23, DEX 5 mg/kg IP QD × 7 from d16, target size 1 gm; for LCK / CR (complete tumor regressions) / PR (partial tumor regressions) / TGI: ELO 0.5, POM 5, DEX 5 mg/kg; for CR (complete tumor regressions) / PR (partial tumor regressions): mice of 8; for TGI: versus untreated mice; for Max % Weight Loss: mouse, in vivo
Method: Mice with established OPM2 xenograft tumors were randomized into 2 groups with 8 mice per group and were administered one of the following sets of regimens: (A) Control group was left untreated (filled circles), elotuzumab (0.5 mg/kg, twice weekly IP for 7 doses starting d16, open circles), dexamethasone (5 mg/kg, daily IP for 7 doses starting on d16, open triangles), elotuzumab plus dexamethasone combination (filled triangles), pomalidomide (5 mg/kg, daily for 5 days orally starting on d16 and then again for 5 days on d23) plus dexamethasone combination (dashes); or (B) Control group was left untreated (filled circles), elotuzumab (0.5 mg/kg, twice weekly IP for 7 doses starting d16, open circles), pomalidomide (5 mg/kg, daily for 5 days orally starting on d16 and then again for 5 days on d23, open squares), elotuzumab (0.5 mg/kg, twice weekly IP for 10 doses starting d16) plus pomalidomide combination (filled squares), elotuzumab (10 doses) plus pomalidomide plus dexamethasone combination (x's). The data are presented as means+/−standard deviation.
(§1) Mice with established OPM2 xenograft tumors were randomized into groups with 8 mice per group and were administered one of the following regimens: (A): untreated (control); (B): elotuzumab; (C): pomalidomide; (D): dexamethasone; (E): elotuzumab plus pomalidomide; (F): elotuzumab plus dexamethasone; (G): pomalidomide plus dexamethasone; or (H): elotuzumab plus pomalidomide plus dexamethasone. Data represent tumor weight measured in individual animals. Dosing route and regimen are described in FIG. 2 and Example 1.
(§2) Animals: All mice were obtained from Taconic Biosciences (Germantown, N.Y.), and maintained in ammonia-free environment in a defined and pathogen-free colony. All animal procedures were approved by the Bristol-Myers Squibb (BMS) Institutional Animal Care and Use Committee. The animal care and use program at BMS has been fully accredited by the Association for Assessment and Accreditation of Laboratory Animal Care International (AAALAC).
(§3) Animal Models: The human tumor xenograft OPM2 was grown in IcrTac scid mice (ICRPrkdcscid). Treated animals were checked daily for treatment related toxicity/mortality. Each group of animals was weighed before the initiation of treatment (Wt1) and then weighed again following the last treatment dose (Wt2). The difference in body weight (Wt2-Wt1) provides a measure of treatment-related toxicity. Additional weights were recorded at each measurement date to monitor toxicity.
(§4) Tumor response was determined by measurement of tumors with a caliper twice a week, until the tumors reached a predetermined “target” size of 1 gm. Tumor weights (mg) were estimated from the formula: Tumor weight=(length×width2)/2.
(§5) Tumor response end-point was expressed in terms of tumor cell kill and tumor growth inhibition. Tumor growth delay was defined as the difference in time (days) required for the treated tumors (T) to reach a predetermined target size compared to those in the control group (C). For this purpose tumor weight of a group was expressed as […] tumor weight (MTW).
(§6) Tumor cell kill was expressed in terms of log cell kill (LCK), represented by the equation LCK=[…] where tumor volume doubling time (TVDT) was first calculated with the formula: TVDT=Median time (days) for control tumor weight to reach target size−Median time (days) for control tumor weight to reach half the target size.

OPM2 xenograft [3] = details: for Median Days to Target Size / LCK / CR (complete tumor regressions) / PR (partial tumor regressions) / TGI: Study #2; for Median Days to Target Size: ELO 0.5 mg/kg IP 2QW from d12, POM 5 mg/kg PO QD × 5 d12, 19, DEX 5 mg/kg IP QD × 7 from d12, target size 1 gm; for LCK / CR (complete tumor regressions) / PR (partial tumor regressions) / TGI: ELO 0.5, POM 5, DEX 5 mg/kg; for CR (complete tumor regressions) / PR (partial tumor regressions): mice of 8; for TGI: versus untreated mice
Method: FIGS. 4A-B. Study #2 (OPM2-16), Antitumor Activity, Elotuzumab Efficacy in Combination with Pomalidomide and Dexamethasone in OPM2 Multiple Myeloma Xenograft. Mice with established OPM2 xenograft tumors were randomized into 2 groups with 8 mice per group and were administered one of the following sets of regimens: (A) Control group was left untreated (filled circles), elotuzumab (0.5 mg/kg, twice weekly IP for 6 doses starting d12, open circles), dexamethasone (5 mg/kg, daily IP for 7 doses starting on d12, open triangles), elotuzumab (0.5 mg/kg, twice weekly IP for 8 doses starting d12) plus dexamethasone combination (filled triangles), pomalidomide (5 mg/kg, daily for 5 days orally starting on d12 and then again for 5 days on d19) plus dexamethasone combination (dashes); or (B) Control group was left untreated (filled circles), elotuzumab (0.5 mg/kg, twice weekly IP for 6 doses starting d12, open circles), pomalidomide (5 mg/kg, daily for 5 days orally starting on d12 and then again for 5 days on d19, open squares), elotuzumab (0.5 mg/kg, twice weekly IP for 8 doses starting d12) plus pomalidomide combination (filled squares), elotuzumab (0.5 mg/kg, twice weekly IP for 8 doses starting d12) plus pomalidomide plus dexamethasone combination (x's). The data are presented as means+/−standard deviation.
as §1, with “FIGS. 5A-H. Study #2 (OPM2-16), Anti Tumor Activity of Elotuzumab, Pomalidomide, and Dexamethasone as Single Agent and Combination Treatment in OPM2 Multiple Myeloma Xenograft tumor model. Mice” for “Mice”, “FIG. 4” for “FIG. 2”
as §2, §3, §4, §5, §6

[4] = tested on: relapsed and refractory MM; details: cited from earlier work
[5] = 38 subjects, including 22 with dexamethasone added

Nc1cccc2c1C(=O)N(C1CCC(=O)NC1=O)C2=O (racemic) [Pomalidomide, (RS)-4-amino-2-(2,6-dioxo-piperidin-3-yl)-isoindole-1,3-dione]
efficacy / effect on tumor growth (in words) (OPM2 xenograft [1]): inhibited tumor growth
Median Days to Target Size (OPM2 xenograft [2]): 29.8 days
LCK (OPM2 xenograft [2]): 0.26
CR (complete tumor regressions) (OPM2 xenograft [2]): 0/8
PR (partial tumor regressions) (OPM2 xenograft [2]): 0/8
TGI (OPM2 xenograft [2]): 52%
Max % Weight Loss (OPM2 xenograft [2]): −1.1%
Median Days to Target Size (OPM2 xenograft [3]): 22.5 days
LCK (OPM2 xenograft [3]): 0.33
CR (complete tumor regressions) (OPM2 xenograft [3]): 0/8
PR (partial tumor regressions) (OPM2 xenograft [3]): 0/8
TGI (OPM2 xenograft [3]): 41.4%
Max % Weight Loss (OPM2 xenograft [3]; mouse, in vivo): −1.1%
number of DLTs (Grade 4 neutropenia) ([4]; 5 mg daily Days 1-21 of 28-day cycle): 4
treatment-emergent Grade 3/4 anemia ([4]; 38 subjects, 2-5 mg): 21%
treatment-emergent Grade 3/4 fatigue ([4]; 38 subjects, 2-5 mg): 16%
treatment-emergent Grade 3/4 neutropenia ([4]; 38 subjects, 2-5 mg): 53%
treatment-emergent Grade 3/4 thrombocytopenia ([4]; 38 subjects, 2-5 mg): 18%
subjects achieving CR [4, 5]: 3%
subjects achieving ≥MR or better [4, 5]: 42%
subjects achieving ≥PR [4, 5]: 21%
MTD ([4]; Days 1-21 of 28-day cycle): 4 mg/day

Elotuzumab: humanized monoclonal IgG1 antibody directed against CS-1; VL SEQ ID NO:1, VH SEQ ID NO:2
efficacy / effect on tumor growth (in words) (OPM2 xenograft [1]): inhibited tumor growth
Median Days to Target Size (OPM2 xenograft [2]): 35.0 days
LCK (OPM2 xenograft [2]): 0.61
CR (complete tumor regressions) (OPM2 xenograft [2]): 0/8
PR (partial tumor regressions) (OPM2 xenograft [2]): 0/8
TGI (OPM2 xenograft [2]): 70.3%
Max % Weight Loss (OPM2 xenograft [2]): −2.2%
Median Days to Target Size (OPM2 xenograft [3]): 24.0 days
LCK (OPM2 xenograft [3]): 0.47
CR (complete tumor regressions) (OPM2 xenograft [3]): 0/8
PR (partial tumor regressions) (OPM2 xenograft [3]): 0/8
TGI (OPM2 xenograft [3]): 57.7%
